From patent US20200239587A1, “SENSITIZATION OF TUMORS TO THERAPIES THROUGH ENDOGLIN ANTAGONISM” (Cedars-Sinai Medical Center, priority 2016, published 2020)

Legend:
[1] = tested on: SFRP1 expression in human NAF and CAF; test: SFRP1 mRNA expression in NAF and CAF treated with TRC105; assay type: cell-based; settings: vs IgG
Source text: See also FIG. 15. […] Immunohistochemical localization of CD105 and SFRP1 in benign or PCa tissues are found in blood vessels (v), epithelia (e), and stroma (s), n=4. Scale bar represents 100 μm. FIG. 12E) Epithelial proliferation of human CW22Rv1, in 3D co-cultures with mouse prostatic fibroblasts, were co-stained for EpCam and Ki67 for FACS analysis. […] See also FIG. 16. […] Error bars are mean+/−SD and **p<0.01, ****p<0.0001, compared to control unless otherwise indicated.
CW22Rv1, C42B, and PC3 cells from ATCC were expanded as directed. Prostatectomy specimens from Cedars-Sinai Medical Center or the Greater Los Angeles Veterans Affairs were cultured to generate NAF and CAF cells using the same method, as C57BL/6 mouse wild-type prostatic fibroblasts were grown as previously reported (Franco et al., 2011, Cancer research 71, 1272-1281; Kiskowski et al., 2011, Cancer research 68, 4709-4718). TRC105 and M1043 were provided by TRACON Pharmaceuticals, Inc. (San Diego, Calif.). […]
Total RNA was extracted using the RNeasy kit (Qiagen). […] Quantitative RT-PCR was performed with 5 replicates using the Step One Real-Time PCR system (Applied Biosystems). […] For RNA-sequencing, Ion Proton AmpliSeq Transcriptome RNA Sequencing was performed achieving an average of 3M reads. We mapped an average of 88% of the reads to the human genome with Torrent Suite version 4.4.2.

CW22Rv1 xenograft model = test: Subcutaneous CW22Rv1 xenograft with radiation; assay type: in vivo, mice
Procedure: Tumor volumes were longitudinally measured. When tumor average volume reached […] mice were treated with IgG or TRC105 in the context of radiation (2 Gy for 5 days). Tumors were harvested 15 days after the first dose of radiation. FIG. 28A) Tumor volume fold change was normalized to the first dose of radiation (day 1, ***p<0.001). FIG. 28B) Each treatment was compared for doubling of tumor volume as a function of time as depicted in the cumulative incidence plot.
The inventors assessed CD105 dependent radio-resistance using a CW22Rv1 xenograft model. Mice engrafted with subcutaneous CW22Rv1 were given one dose of IgG or TRC105 72 hours prior to radiation and subsequently 3 times a week for the duration of radiation treatment. The irradiated IgG and irradiated TRC105 groups were given a radiation dosage of 2Gy for 5 consecutive days. Fold change in tumor volume was calculated for each group (FIG. 28A).

22Rv1 = test: γ-H2AX and p53BP foci after irradiation; assay type: cell-based, human; settings: for γ-H2AX and p53BP foci: TRC105 plus 4Gy vs radiation alone
Procedure: 22Rv1 were pre-treated with 1 μg/ml TRC105 24 hours prior to irradiation with 4 Gy. FIG. 22A) γ-H2AX or p53 bp were imunolocalized at 4, 24, and 48 hours post radiation. Foci per nuclei were quantified (n=100). FIG. 22B) Comet assay was performed 30 minutes and 24 hours following irradiation. The tail moment was quantified (n=50). FIG. 22C) Cell cycle analysis was performed on 22Rv1 at 0, 4, 8, and 24 hours post radiation in the presence of IgG or TRC105 (n=3) in 3 independent experiments. (***p<0.001, ****p<0.0001).

[2] = tested on: tissue recombination orthotopic xenografts of primary human CAF and Rv1; test: Tissue recombination orthotopic xenografts of primary human CAF and Rv1
Source text: FIG. 13A) Mice were orthotopically grafted with tissue recombinants of CW22Rv1 and CAF. […] FIG. 13B) H&E staining was followed by immune-localization for phosphorylated-histoneH3 (PH-H3), TUNEL, and chromogranin A (ChromA). Scale bar represents 32 μm. The mitotic (PH-H3) and cell death (TUNEL) indexes were plotted. n>5, error bars are mean+/−SD and *p<0.05, **p<0.01, ***p<0.001, compared to control unless otherwise indicated.
Male beige/SCID mice (Envigo), 6-8 or 10-12 weeks old, were used for subrenal capsule or prostatic orthotopic grafting, respectively, as previously described (Banerjee et al., 2014, Oncogene 33, 4924-4931; Hayward et al., 2001, Cancer Res 61, 8135-8142). In accordance with institutional animal care and use committee approval, 2×10^5 CW22Rv1 cells and 6×10^5 stromal cells were suspended in 20 μL type I collagen to be grafted into the subrenal capsule of mice castrated after seven days and sacrificed 21 days after castration. […] Tumor volume was calculated using the modified ellipsoid formula volume3=π/6×(width)2×length.
Paraffin embedded tissues were sectioned (5 μm thick) were subjected to hematoxylin and eosin (H&E) staining and immunohistochemistry as previously reported (Placencio et al., 2008, Cancer research 68, 4709-4718). […] Anti-phosphorylated histone H3 (06-570, Millipore), anti-CD105 (NCL-CD105, Leica Microsystems), anti-Ki67 (ab16667, Abcam), and anti-chromogranin A (sc-13090, Santa Cruz Biotechnology), anti-SFRP1 (601-401-475S, Rockland Immunochemicals), and anti-survivin (2808, Cell Signaling) antibodies were incubated at 4° C. overnight. Secondary antibody development was performed with Dako Cytomation mouse or rabbit kits and visualized using 3,3′-diaminobenzidine tetrahydrochloride substrate. TUNEL staining was performed per manufacturer's protocol (S7100, Millipore). Slides were scanned with a Leica Biosystems Aperio AT. Up to five fields per tissue were quantitated with Fiji (ImageJ) using a custom written macro. Mitotic and death index were quantitated by taking the total number of positively-stained nuclei divided by the total number of nuclei.

[3] = tested on: CD105 cell surface expression in human CW22Rv1 epithelia and mouse prostatic fibroblasts; test: 3D co-culture, CD105 cell surface expression by FACS; assay type: cell-based; settings: hypoxia (2% O2), 72 hours; mouse prostatic fibroblasts and human prostate cancer epithelia
Procedure: After 72 hours, the cells were dissociated and assessed by FACS for CD105 expression as shown.
A modified version of the 3D organotypic co-culture system was performed in a collagen matrix similar to that previously reported (Stark et al., 1999, J Invest Dermatol 112, 681-691). Collagen matrix gels were prepared by mixing five volumes of rat tail collagen I with two volumes of matrigel (NCI), one volume of 10× DMEM medium (GE Healthcare Life Sciences), and one volume of FBS (Atlanta Biologicals), Rv1 and primary mouse prostatic fibroblasts were combined in a 1:3 ratio. Nylon squares were coated with collagen and placed on metal grids in a 6-well plate. Gel plugs (150 μl) were transferred onto the nylon squares and media was added to the level of the nylon mesh. After 72 hours, the cells were dissociated from the matrix with collagenase and dispersed for FACS analysis.
FACS experiments were performed with eBiosciences antibodies: anti-human Stro-1-FITC (340105), anti-human CD90-PE (12-0909-42), anti-human CD105-APC (17-1057-41), anti-mouse CD105-APC (17-1051-82), anti-human CD117-PE-Cy7 (15-1178-41), anti-human Ki67-PECy7 (25-5699-41), and anti-human EpCAM-PE (12-9326-41). All events were acquired on a BD LSRII flow cytometer in the Cedars-Sinai Medical Center FACS core installed with BD FACSDiva software. Files were analyzed using FlowJo software v10.2. […]

## TRC105: partially humanized monoclonal antibody that blocks BMP signaling; human-specific CD105 (endoglin) neutralizing antibody from Tracon Pharmaceuticals
[1]
  SFRP1 expression in NAF: no effect
[1]; p<0.0001
  SFRP1 expression in CAF: significantly down regulated
CW22Rv1 xenograft model; TRC105 alone compared to untreated
  tumor volume: did not influence tumor volume
CW22Rv1 xenograft model; TRC105 with irradiation vs either treatment alone
  tumor doubling time: appreciably inhibited
CW22Rv1 xenograft model; radiation (2Gy for 5 days) and TRC105, p<0.001
  tumor volume: significantly lower than the other three experimental groups
22Rv1; TRC105 alone (radiation alone 59.6%)
  number of cells with greater than 10 foci per nuclei: 4.3%
22Rv1; 4 and 24 hours post radiation
  γ-H2AX and p53BP foci: significant increase in γ-H2AX and p53BP foci
22Rv1; by 48 hours
  γ-H2AX and p53BP foci: no difference
22Rv1; TRC105 treatment alone vs untreated, within 24 hours, persisted past 72 hours
  double stranded DNA breaks: significant increase in double stranded DNA breaks
[2]; TRC105 added to ATT
  NED, chromogranin A staining: reduced
[2]; TRC105 alone compared to control
  proliferation or cell death: little change in either proliferation or cell death
[2]; TRC105 alone, p<0.05
  tumor size: smaller than vehicle
[2]; TRC105 in enzalutamide treated castrated mice vs vehicle or enzalutamide (p<0.01 and <0.05)
  tumor volume: significant reduction in tumor volume
[2]; TRC105 treatment in castrated mice
  tumor size: reduced tumor size
[2]; castration, enzalutamide and TRC105 vs control or castrated enzalutamide group (p<0.05 and <0.001)
  proliferation (phosphorylated-histone H3): substantially reduced proliferation
[2]; castration, enzalutamide and TRC105 vs control or enzalutamide (p<0.05)
  TUNEL staining: increased TUNEL staining
[2]; prostate cancer models, in vivo
  efficacy of combination of TRC105 with ADT: superior to either one alone
[3]
  enzalutamide-induced CD105 cell surface expression: down regulated
